From PubChem BioAssay (NCI)
Several values for one entry are separate records, joined by “and”; a condition that tells them apart may be missing. Equal entries are not always repeated.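 Cultured in 96-well plates, cells were exposed to test compound for 48 hours across five concentrations. GI50 marks 50% less growth. TGI: concentration producing complete growth inhibition.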

What was measured:
Assay in all cases: NCI-60 cell line screen, 48 h
DLD-1 colon = test system: DLD-1 colon
HOP-92 NSCLC = test system: HOP-92 NSCLC
NCI-H460 lung = test system: NCI-H460 lung
NCI-H522 lung = test system: NCI-H522 lung
OVCAR-3 ovarian = test system: OVCAR-3 ovarian
OVCAR-8 ovarian = test system: OVCAR-8 ovarian
SK-MEL-28 melanoma = test system: SK-MEL-28 melanoma
SNB-75 CNS = test system: SNB-75 CNS
SNB-78 CNS = test system: SNB-78 CNS
UACC-257 melanoma = test system: UACC-257 melanoma

SMILES | TGI (DLD-1 colon) | TGI (HOP-92 NSCLC) | TGI (NCI-H460 lung) | TGI (NCI-H522 lung) | TGI (OVCAR-3 ovarian) | TGI (OVCAR-8 ovarian) | TGI (SK-MEL-28 melanoma) | TGI (SNB-75 CNS) [µM] | TGI (SNB-78 CNS) | TGI (UACC-257 melanoma) | GI50 (DLD-1 colon) [µM] | GI50 (HOP-92 NSCLC) [µM] | GI50 (NCI-H460 lung) [µM] | GI50 (NCI-H522 lung) [µM] | GI50 (OVCAR-3 ovarian) [µM] | GI50 (OVCAR-8 ovarian) [µM] | GI50 (SK-MEL-28 melanoma) [µM] | GI50 (SNB-75 CNS) [µM] | GI50 (SNB-78 CNS) [µM] | GI50 (UACC-257 melanoma) [µM]
C/C(=N/Nc1ccc([N+](=O)[O-])cc1[N+](=O)[O-])C(CC(C(=O)Nc1ccccc1C)/C(C)=N\Nc1ccc([N+](=O)[O-])cc1[N+](=O)[O-])C(=O)Nc1ccccc1C (stereo not drawn) | > 100 µM | 15.5 µM | 36.4 µM | 41.8 µM | 22.4 µM | 14 µM | 51.1 µM | 29.4 | 52.2 µM | 43.9 µM |  |  |  |  |  |  |  |  |  | 
O=C1c2ccccc2C(=O)c2c1ccc1c3ccccc3n(Cc3ccccc3)c21 | > 100 µM | 94.2 µM | > 100 µM | > 100 µM | > 100 µM | > 100 µM |  | > 100 |  |  |  |  |  |  |  |  |  |  |  | 
O=C1/C(=C/c2ccccc2)CN(C(=O)OCC(Cl)(Cl)Cl)C/C1=C\c1ccccc1 | 3.77 µM |  | 5.66 µM |  |  | 3.78 µM | 3.25 µM | 13.6 | 5.92 µM | 4.48 µM |  |  |  |  |  |  |  |  |  | 
CC[C@@]1(O)C(=O)OCc2c1cc1n(c2=O)Cc2cc3c(NC(C)=O)c(O)ccc3nc2-1 | > 100 µM | 51.9 µM | 4.24 µM | 14.5 µM | 41.1 µM | > 47.7 µM | > 100 µM | 7.31 | > 100 µM | > 86.6 µM | 43.3 | 7.76 | 0.288 | 0.565 | 9.7 | 1.54 | > 25.9 | 0.744 | 28.9 | 10.8
CCN1CC2(C)CC[C@@H](OC)C34[C@@H]2[C@H](OC(C)=O)C2(OCO[C@@]25C[C@H](OC)C2C[C@]3(O)[C@@H]5[C@H]2O)[C@H]14 | > 100 µM | > 100 µM | > 100 µM | > 100 µM | > 100 µM | > 100 µM | > 100 µM | > 100 | > 100 µM | > 100 µM |  |  |  |  |  |  |  |  |  | 
Cc1cccc(CC(C)(C)C)c1NC(=O)C(=O)C(C(=O)c1ccc2ccccc2c1)C1OC(=O)c2ccccc21 (stereo not drawn) | 35.1 µM | 8.54 µM | 17 µM | 26.7 µM | > 100 µM |  | 18.8 µM |  | > 100 µM | 26.2 µM |  |  |  |  |  |  |  |  |  | 
O=C(OCc1nc2ccc(Br)cc2c(=O)n1-c1ccccc1)c1ccccc1O | > 100 µM | > 100 µM | > 100 µM | > 100 µM | > 100 µM | > 100 µM | > 100 µM | > 100 | > 100 µM | > 100 µM |  |  |  |  |  |  |  |  |  | 
CCC1NCC(=O)c2c1[nH]c1ccccc21 (stereo not drawn) | > 100 µM | > 100 µM | > 100 µM | > 100 µM | > 100 µM | > 100 µM | > 100 µM | > 100 | > 100 µM | > 100 µM |  |  |  |  |  |  |  |  |  | 
COC(=O)C(=O)C(C(=O)C(=O)Nc1ccccc1C(N)=O)c1nc2ccc(C(=O)c3ccccc3)cc2[nH]c1=O (stereo not drawn) |  |  | > 100 µM | 93.8 µM |  | > 100 µM | > 100 µM |  | > 100 µM | > 100 µM |  |  |  |  |  |  |  |  |  | 
COc1ccccc1NC(=O)C(=O)C1C(=O)Nc2ccccc2S1=O (stereo not drawn) | > 100 µM |  | > 100 µM | > 100 µM | > 100 µM | > 100 µM | > 100 µM | > 100 | > 100 µM | > 100 µM |  |  |  |  |  |  |  |  |  | 
O=C1/C(=C/c2ccccc2)CN(C(=O)Oc2ccc([N+](=O)[O-])cc2)C/C1=C\c1ccccc1 | 4.83 µM and 3.45 µM |  |  | 8.54 µM and 5.13 µM | 5.58 µM | 3.74 µM and 4.18 µM | 7.65 µM |  | 28.5 µM | 8.79 µM | 1.2 |  |  | 2.15 |  | 1.86 |  |  |  | 6.29
CCOC(=N)CC(=O)NC(C)c1ccccc1 (stereo not drawn) | > 100 µM |  | > 100 µM | > 100 µM | > 100 µM | > 100 µM | > 100 µM | > 100 | > 100 µM | > 100 µM |  |  |  |  |  |  |  |  |  | 
CCCCCCCCCCCCCCCC(=O)OCC1OC(n2ccc(N)nc2=O)C(O)C1O (stereo not drawn) | > 100 µM | > 100 µM | > 40.6 µM | > 100 µM | > 97 µM | > 100 µM | > 100 µM | > 100 | > 100 µM | > 100 µM |  |  |  |  |  |  |  |  |  | 
CCCCCCCCCCCCCCCC(=O)N[C@H]1CCc2cc(OC)c(OC)c(OC)c2-c2ccc(SC)c(=O)cc21 | 10.6 µM and 12.4 µM | 11.3 µM and 5.32 µM | 2.15 µM and 10.1 µM |  | 0.642 µM and 3.01 µM | 8.92 µM and 12.6 µM | 24.3 µM and 17.9 µM |  | 80 µM and 25.7 µM | 13.1 µM and 26.4 µM | 0.709 | 0.564 | 2.97 |  | 0.53 | 3.31 |  | 2.96 | 0.669 | 0.699
COc1cc(C2c3cc4c(cc3[C@@H](Nc3cccc(O)c3)C3COC(=O)[C@H]23)OCO4)cc(OC)c1O (stereo partly drawn) | 40.9 µM | 0.951 µM and 9.4 µM | 3.55 µM | 5.51 µM | 12.6 µM | 11.4 µM | 20.7 µM | 14.1 | 65.1 µM | 16.9 µM |  | 0.458 | 0.145 | 0.571 |  | 0.769 | 0.746 | 0.623 | 0.906 | 0.925
CCOC(=O)NNC(=O)NC12CC3CC(CC(C3)C1)C2 | > 100 µM | > 100 µM | > 100 µM | > 100 µM | > 100 µM | > 100 µM | > 100 µM | > 100 | > 100 µM | > 100 µM |  |  |  |  |  |  |  |  |  | 
Cn1cc(-c2nn3cc(-c4cccs4)nc3s2)c2cc(F)ccc21 |  | 76.9 µM | 17.1 µM | 24.5 µM | 9.67 µM | > 100 µM | > 100 µM | 6.45 |  | > 100 µM |  | 12.2 | 1.73 | 1.62 | 2.06 | 4.53 | 7.23 | 1.29 |  | 7.9
CCCCCCCCCCCCNC(=O)[C@H]1CSC(c2ccc(OC)c(F)c2)N1 (stereo partly drawn) |  | 3.24 µM | 3.63 µM | 3.64 µM | 3.26 µM | 4.13 µM | 1.11 µM | 1.01 |  | 3.13 µM |  | 1.69 | 1.74 | 1.82 | 1.45 | 1.18 | 0.342 | 0.468 |  | 1.62
